The test system of one assay is MCP-1. The assay can be described thus: Cytometric Bead Array of peritoneal fluid, chronic zymosan peritonitis: MCP-1. The class given is in vivo, mouse. Conditions: 2 mg/kg, vs Zymosan control. On the procedure:
(§1) Peritoneal inflammation was induced by Zymosan A (Sigma Chemical) (Masashi et al. Zymosan, but Not Lipopolysaccharide, Triggers Severe and Progressive Peritoneal Injury Accompanied by complement Activation in a Rat Peritonitis Model) was prepared freshly in sterile, 0.9% w/v saline, and 0.5 ml was injected i.p. from day 0 to Day 5. The lymphocyte population in the peripheral blood was determined with a flow cytometer. Cells were phenotyped by flow cytometry with the following primary antibodies: CD4 (FITC) and CD8 (PE). Cells were gated broadly on all live lymphocyte cells, with only debris and multiple cell clusters being excluded. Analysis of mean fluorescence intensity was done and percentage cell population was evaluated. […]
(§2) The Cytometric Bead Array (Mouse Inflammation kit) was used to study cytokines in peritoneal fluid. […] Briefly, a mixture of 6 capture bead populations (50 μl) with distinct fluorescence intensities (detected in FL3) coated with antibodies specific for the above cytokines was mixed with each sample/standard (50 μl). […] Following acquisition of data by two colour cytometric analysis, the sample results were analysed using CBA software (BD Biosciences). […] Individual cytokine concentration ratios were indicated by their fluorescent intensities and was determined by interpolation from the corresponding standard curve.

Another assay concerns IL-12p70. The assay is described as follows: Cytometric Bead Array of peritoneal fluid, chronic zymosan peritonitis: IL-12. It counts as in vivo, mouse. The settings on record: 2 mg/kg, vs Zymosan control. On the procedure: as §1, §2
For assay [1], the system named is Enterococcus faecalis (Gram positive). The assay can be described thus: Bacterial translocation from the gut into organs: E. faecalis. The settings on record: Withanone 2 mg/kg; positive/6 mice. It counts as in vivo. On the procedure:
(§3) Peritoneal inflammation was induced by Zymosan A (Sigma Chemical) (Masashi et al. Zymosan, but Not Lipopolysaccharide, Triggers Severe and Progressive Peritoneal Injury Accompanied by complement Activation in a Rat Peritonitis Model) was prepared freshly in sterile, 0.9% w/v saline, and 0.5 ml was injected i.p. from day 0 to Day 5. The lymphocyte population in the peripheral blood was determined with a flow cytometer. Cells were phenotyped by flow cytometry with the following primary antibodies: CD4 (FITC) and CD8 (PE). Cells were gated broadly on all live lymphocyte cells, with only debris and multiple cell clusters being excluded. Analysis of mean fluorescence intensity was done and percentage cell population was evaluated. The test drugs were administered for 30 days after the induction of peritonitis. On 36th day the peritoneal cavity was lavaged with 1.5 ml saline, and after a 30-s gentle manual massage, 0.5 ml exudate was retrieved, centrifuged at 3000 g for 3 min, and frozen at […] prior to cytokine and chemotactic-factor assessment.
Intestine serves as a barrier in preventing gut bacteria and/or endotoxin from spreading to organs and tissues. It is also known that bacterial translocation occurs in critically ill or immunocompromised patients, and the physical disruption of mucosal barrier in vivo rodent models seem to be a key factor Tor translocation (Deitch et al. Effect of hemorrhagic shock on bacterial translocation, intestinal morphology, and intestinal permeability in conventional and antibiotic-decontaminated rats; Critical Care Medicine; 1990 18(5)). Bacterial translocation from the gut into the peritoneal cavity and organs was analyzed. The mesenteric lymph nodes, liver, and spleen of mice, study group of 30, were removed using sterile instruments. The organs were then homogenized in 1 ml of sterile cooked meat broth and 50 μl of organ homogenate was spread on blood agar plates to detect aerobic bacteria and Eosin Methylene blue agar plates to detect specially for E. coli. These plates were then incubated at 37° C. for 2 days. […]

The next assay has as its system Myeloperoxidase (MPO). The assay can be described thus: Myeloperoxidase in peritoneal exudate (ELISA), chronic zymosan peritonitis. Conditions: 2 mg/kg, day 36. It counts as in vivo, mouse. On the procedure: as §3
Circulating toxins can activate neutrophils or stimulate monocytes to release mediators contributing to the development of endotoxic shock. […] The protein concentrations were carried out by means of colorimetric measurement at 450 nm on an ELISA plate reader by interpolation from a standard curve. […]
Background: ELISA stands for enzyme-linked immunosorbent assay.

Results on 1 compound are retold here after patent publication US20230404969A1, “COMPOSITIONS AND METHOD FOR EFFECTIVE MANAGEMENT OF PERITONITIS” (priority 2022, published 2023).

Turning to `CC1=C(C)C(=O)O[C@@H]([C@@H](C)[C@@]2(O)CC[C@H]3[C@@H]4[C@@H]5O[C@@H]5[C@@]5(O)CC=CC(=O)[C@]5(C)[C@H]4CC[C@@]32C)C1` [Withanone], the “Inhibition of MCP-1” value in the assay on MCP-1 came out at 51%. Besides, in the assay with IL-12p70, the “Inhibition of IL-12” value was determined as 53%. For the same compound, in assay [1], the “Bacterial translocation, Liver, E. faecalis” value was 1/6; the “Bacterial translocation, Mesenteric Lymph Nodes, E. faecalis” value is given as 2/6; the “Bacterial translocation, Spleen, E. faecalis” value is 0/6. In the assay on Myeloperoxidase (MPO), the “Decrease of expression levels of MPO compared to the Zymosan control” value was “at least 50%”.
